Results reported in ChEMBL document CHEMBL5096233, “Phenotypic Discovery of Triazolo[1,5-c]quinazolines as a First-In-Class Bone Morphogenetic Protein Amplifier Chemotype” (J Med Chem, 2022).
Calls of active or inactive are those of the source. No cut-off for these calls is given here.

Experiments:
C2C12 [1] = assay: Induction of osteogenic differentiation in mouse C2C12 cells assessed as ALP activity preincubated with compound in the presence of BMP-4 for 72 hrs followed by substrate addition and measured after 1 hrs by luminescence based assay; type: functional, cell-based; conditions: time 73.0 hrs
HEK293T = assay: Activation of BMP signaling in HEK293T cells expressing BRE-Vent2 luciferase reporter gene assessed as BRE activation by measuring increase in luciferase activity measured after 22 hrs in the presence of BMP-4 by dual-luciferase assay; type: cell-based; conditions: Homo sapiens, filed as activator
C2C12 [2] = assay: Induction of osteogenic differentiation in mouse C2C12 cells assessed as ALP activity preincubated with compound in the presence of BMP-4 for 72 hrs followed by substrate addition and measured after 1 hrs in the presence of PIK93 by luminescence based assay; type: functional, cell-based; conditions: time 73.0 hrs, DDE = dose-dependent effect
C2C12 [3] = assay: Induction of osteogenic differentiation in mouse C2C12 cells assessed as ALP activity preincubated with compound in the presence of BMP-4 for 72 hrs followed by substrate addition and measured after 1 hrs in the presence of BYL719 by luminescence based assay; type: functional, cell-based; conditions: time 73.0 hrs, DDE = dose-dependent effect
[4] = target: Casein kinase I isoform delta (Homo sapiens, UniProt P48730); assay: Inhibition of CK1delta (unknown origin)
Chain of Casein kinase I isoform delta (P48730 whole entry, canonical isoform): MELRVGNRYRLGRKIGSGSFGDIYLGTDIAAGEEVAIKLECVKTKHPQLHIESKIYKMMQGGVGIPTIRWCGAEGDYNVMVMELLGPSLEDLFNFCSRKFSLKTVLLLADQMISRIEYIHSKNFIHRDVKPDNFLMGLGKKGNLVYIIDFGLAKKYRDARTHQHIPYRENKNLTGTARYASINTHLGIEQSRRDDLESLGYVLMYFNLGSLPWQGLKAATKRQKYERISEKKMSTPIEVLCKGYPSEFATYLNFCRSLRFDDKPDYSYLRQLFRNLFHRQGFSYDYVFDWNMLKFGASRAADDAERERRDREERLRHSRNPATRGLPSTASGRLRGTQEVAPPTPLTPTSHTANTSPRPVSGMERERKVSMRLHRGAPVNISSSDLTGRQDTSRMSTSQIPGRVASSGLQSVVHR

[5] = target: Casein kinase I isoform epsilon (Homo sapiens, UniProt P49674); assay: Inhibition of CK1epsilon (unknown origin)
[6] = target: Casein kinase I isoform alpha (Homo sapiens, UniProt P48729); assay: Inhibition of CK1alpha (unknown origin)
Chain of Casein kinase I isoform alpha (P48729 whole entry, canonical isoform): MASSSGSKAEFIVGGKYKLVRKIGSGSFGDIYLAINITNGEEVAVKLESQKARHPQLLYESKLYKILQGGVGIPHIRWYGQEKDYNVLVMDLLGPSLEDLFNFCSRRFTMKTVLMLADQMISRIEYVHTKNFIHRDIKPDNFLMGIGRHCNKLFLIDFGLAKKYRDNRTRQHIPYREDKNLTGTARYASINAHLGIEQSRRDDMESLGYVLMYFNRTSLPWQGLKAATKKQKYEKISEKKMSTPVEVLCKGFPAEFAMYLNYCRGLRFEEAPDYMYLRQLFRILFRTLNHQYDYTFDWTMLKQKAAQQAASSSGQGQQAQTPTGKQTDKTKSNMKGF

C2C12 [7] = assay: Induction of osteogenic differentiation in mouse C2C12 cells assessed as ALP activity at 5 uM preincubated with compound in the presence of BMP-4 for 72 hrs followed by substrate addition and measured after 1 hrs by luminescence based assay relative to control; type: functional; conditions: time 73 hrs
[8] = target: T1, Phosphatidylinositol 4,5-bisphosphate 3-kinase catalytic subunit gamma isoform (Homo sapiens, UniProt P48736); assay: Inhibition of PI3Kgamma (unknown origin) at 10 uM relative to control
Target sequence in this assay (P48736 whole entry, looked up, canonical isoform): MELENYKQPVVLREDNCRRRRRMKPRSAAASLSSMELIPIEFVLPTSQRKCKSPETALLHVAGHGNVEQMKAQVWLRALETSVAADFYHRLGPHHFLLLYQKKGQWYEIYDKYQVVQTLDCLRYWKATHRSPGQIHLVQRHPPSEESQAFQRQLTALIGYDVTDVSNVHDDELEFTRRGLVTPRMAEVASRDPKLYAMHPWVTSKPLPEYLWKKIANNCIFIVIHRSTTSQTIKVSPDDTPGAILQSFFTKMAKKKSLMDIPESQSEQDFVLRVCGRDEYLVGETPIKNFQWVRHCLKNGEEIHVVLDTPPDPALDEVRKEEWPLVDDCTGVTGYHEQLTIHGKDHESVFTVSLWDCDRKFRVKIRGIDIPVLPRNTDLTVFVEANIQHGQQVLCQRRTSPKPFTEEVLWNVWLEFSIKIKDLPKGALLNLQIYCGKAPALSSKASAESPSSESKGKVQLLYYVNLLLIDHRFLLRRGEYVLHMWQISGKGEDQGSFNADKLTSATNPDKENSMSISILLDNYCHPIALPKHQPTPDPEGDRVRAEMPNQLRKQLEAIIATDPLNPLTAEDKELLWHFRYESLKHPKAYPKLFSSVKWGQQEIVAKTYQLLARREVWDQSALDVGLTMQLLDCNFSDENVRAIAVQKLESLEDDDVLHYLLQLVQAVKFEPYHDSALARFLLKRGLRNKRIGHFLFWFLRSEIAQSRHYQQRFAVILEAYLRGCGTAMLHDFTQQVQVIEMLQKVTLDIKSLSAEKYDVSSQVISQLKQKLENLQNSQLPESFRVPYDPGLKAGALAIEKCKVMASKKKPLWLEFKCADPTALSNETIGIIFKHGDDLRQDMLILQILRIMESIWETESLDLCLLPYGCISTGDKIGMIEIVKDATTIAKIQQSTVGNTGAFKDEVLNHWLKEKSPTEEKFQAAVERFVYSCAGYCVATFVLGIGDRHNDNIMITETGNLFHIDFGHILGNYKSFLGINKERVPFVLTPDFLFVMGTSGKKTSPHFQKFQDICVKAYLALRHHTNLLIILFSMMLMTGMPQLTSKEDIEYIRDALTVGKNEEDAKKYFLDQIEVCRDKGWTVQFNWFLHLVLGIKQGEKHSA

[9] = target: T2, Phosphatidylinositol 4,5-bisphosphate 3-kinase catalytic subunit alpha isoform (Homo sapiens, UniProt P42336); assay: Inhibition of PI3Kalpha (unknown origin) at 10 uM relative to control
T2 sequence (P42336 whole entry, canonical isoform): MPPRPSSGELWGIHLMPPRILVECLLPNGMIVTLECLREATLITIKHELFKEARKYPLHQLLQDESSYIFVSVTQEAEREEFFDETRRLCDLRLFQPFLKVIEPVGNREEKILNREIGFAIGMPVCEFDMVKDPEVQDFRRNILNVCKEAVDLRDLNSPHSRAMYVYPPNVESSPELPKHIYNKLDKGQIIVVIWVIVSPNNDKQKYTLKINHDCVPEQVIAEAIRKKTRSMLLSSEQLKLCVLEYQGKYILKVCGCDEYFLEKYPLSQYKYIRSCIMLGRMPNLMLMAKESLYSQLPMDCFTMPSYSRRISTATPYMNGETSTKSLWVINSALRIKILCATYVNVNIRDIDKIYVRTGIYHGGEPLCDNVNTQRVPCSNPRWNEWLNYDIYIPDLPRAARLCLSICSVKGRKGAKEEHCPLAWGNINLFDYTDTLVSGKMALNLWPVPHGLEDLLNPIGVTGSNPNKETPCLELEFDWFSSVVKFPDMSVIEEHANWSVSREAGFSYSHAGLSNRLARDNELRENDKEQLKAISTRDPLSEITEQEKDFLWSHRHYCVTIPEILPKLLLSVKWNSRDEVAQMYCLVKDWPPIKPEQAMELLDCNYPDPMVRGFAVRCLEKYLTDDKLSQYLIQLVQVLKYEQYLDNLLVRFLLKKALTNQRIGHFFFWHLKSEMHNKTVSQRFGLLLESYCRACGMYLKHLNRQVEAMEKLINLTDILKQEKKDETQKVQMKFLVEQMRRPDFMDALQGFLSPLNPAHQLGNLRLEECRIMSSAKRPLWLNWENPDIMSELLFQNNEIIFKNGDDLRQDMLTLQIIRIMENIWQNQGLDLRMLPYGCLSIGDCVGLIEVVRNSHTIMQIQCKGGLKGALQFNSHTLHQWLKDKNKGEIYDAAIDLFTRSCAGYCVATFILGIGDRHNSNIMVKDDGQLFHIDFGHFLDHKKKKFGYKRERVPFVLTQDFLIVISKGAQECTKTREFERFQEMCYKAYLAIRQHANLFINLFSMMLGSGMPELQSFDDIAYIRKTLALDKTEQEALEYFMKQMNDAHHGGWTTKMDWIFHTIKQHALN

[10] = target: T3, Phosphatidylinositol 4,5-bisphosphate 3-kinase catalytic subunit delta isoform (Homo sapiens) (UniProt O00329); assay: Inhibition of PI3Kdelta (unknown origin) at 10 uM relative to control
T3 sequence (whole entry): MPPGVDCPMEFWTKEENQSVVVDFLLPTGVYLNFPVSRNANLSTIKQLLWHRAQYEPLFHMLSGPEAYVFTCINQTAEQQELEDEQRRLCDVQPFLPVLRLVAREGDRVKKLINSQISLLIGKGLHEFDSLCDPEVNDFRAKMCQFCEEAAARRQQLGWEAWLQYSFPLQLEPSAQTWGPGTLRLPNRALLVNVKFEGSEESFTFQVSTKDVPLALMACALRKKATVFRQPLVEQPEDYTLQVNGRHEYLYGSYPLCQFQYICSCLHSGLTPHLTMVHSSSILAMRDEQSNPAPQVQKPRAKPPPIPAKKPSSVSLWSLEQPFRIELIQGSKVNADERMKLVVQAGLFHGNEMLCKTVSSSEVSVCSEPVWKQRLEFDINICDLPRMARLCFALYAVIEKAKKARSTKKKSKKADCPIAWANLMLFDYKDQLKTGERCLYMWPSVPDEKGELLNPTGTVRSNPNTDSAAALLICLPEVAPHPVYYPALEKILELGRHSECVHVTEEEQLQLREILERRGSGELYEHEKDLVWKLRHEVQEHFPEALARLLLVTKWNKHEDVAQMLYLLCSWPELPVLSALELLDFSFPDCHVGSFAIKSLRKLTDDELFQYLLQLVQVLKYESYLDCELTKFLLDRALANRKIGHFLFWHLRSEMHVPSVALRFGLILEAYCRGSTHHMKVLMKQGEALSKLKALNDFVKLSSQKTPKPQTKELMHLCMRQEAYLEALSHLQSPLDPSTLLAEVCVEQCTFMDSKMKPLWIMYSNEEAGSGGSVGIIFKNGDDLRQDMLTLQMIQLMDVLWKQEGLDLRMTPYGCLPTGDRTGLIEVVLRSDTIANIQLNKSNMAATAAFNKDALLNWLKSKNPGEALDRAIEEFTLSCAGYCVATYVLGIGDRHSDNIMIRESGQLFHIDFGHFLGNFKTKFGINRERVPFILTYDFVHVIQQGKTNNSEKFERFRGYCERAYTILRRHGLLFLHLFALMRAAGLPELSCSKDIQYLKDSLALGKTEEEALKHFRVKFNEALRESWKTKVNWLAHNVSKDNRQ

[11] = target: T4, Phosphatidylinositol 4,5-bisphosphate 3-kinase catalytic subunit beta isoform (Homo sapiens, UniProt P42338); assay: Inhibition of PI3Kbeta (unknown origin) at 10 uM relative to control
Target sequence in this assay (P42338 whole entry, looked up, canonical isoform): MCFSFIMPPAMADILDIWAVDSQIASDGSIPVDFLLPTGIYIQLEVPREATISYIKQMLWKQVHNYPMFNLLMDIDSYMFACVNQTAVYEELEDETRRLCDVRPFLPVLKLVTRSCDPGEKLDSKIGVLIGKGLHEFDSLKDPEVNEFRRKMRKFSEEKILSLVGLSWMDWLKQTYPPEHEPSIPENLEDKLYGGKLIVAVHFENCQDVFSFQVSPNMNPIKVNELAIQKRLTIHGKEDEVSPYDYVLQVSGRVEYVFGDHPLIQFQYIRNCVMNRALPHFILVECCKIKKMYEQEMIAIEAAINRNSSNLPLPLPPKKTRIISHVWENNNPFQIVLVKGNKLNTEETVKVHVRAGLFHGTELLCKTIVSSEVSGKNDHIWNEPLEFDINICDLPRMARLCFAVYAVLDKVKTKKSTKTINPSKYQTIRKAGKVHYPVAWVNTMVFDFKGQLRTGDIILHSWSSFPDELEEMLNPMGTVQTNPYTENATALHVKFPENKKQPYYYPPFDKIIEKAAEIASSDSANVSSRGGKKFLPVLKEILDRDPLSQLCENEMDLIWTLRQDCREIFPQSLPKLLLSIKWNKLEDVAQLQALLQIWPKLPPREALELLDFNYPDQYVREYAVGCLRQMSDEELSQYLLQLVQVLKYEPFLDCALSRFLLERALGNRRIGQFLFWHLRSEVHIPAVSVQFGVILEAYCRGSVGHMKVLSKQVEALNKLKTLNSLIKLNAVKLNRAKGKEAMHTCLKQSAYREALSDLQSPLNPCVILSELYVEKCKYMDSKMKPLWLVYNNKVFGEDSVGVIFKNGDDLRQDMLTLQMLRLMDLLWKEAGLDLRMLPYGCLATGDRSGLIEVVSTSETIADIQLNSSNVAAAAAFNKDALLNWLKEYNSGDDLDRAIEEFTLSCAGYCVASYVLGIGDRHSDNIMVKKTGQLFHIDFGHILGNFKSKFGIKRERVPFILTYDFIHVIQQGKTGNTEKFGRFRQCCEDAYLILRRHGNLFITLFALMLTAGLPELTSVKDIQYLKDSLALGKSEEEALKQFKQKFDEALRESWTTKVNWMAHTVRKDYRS

[12] = target: Phosphatidylinositol 3-kinase catalytic subunit type 3 (Homo sapiens) (UniProt Q8NEB9); assay: Inhibition of VPS34 (unknown origin) at 10 uM relative to control
Chain of Phosphatidylinositol 3-kinase catalytic subunit type 3 (Homo sapiens) (Q8NEB9 whole entry): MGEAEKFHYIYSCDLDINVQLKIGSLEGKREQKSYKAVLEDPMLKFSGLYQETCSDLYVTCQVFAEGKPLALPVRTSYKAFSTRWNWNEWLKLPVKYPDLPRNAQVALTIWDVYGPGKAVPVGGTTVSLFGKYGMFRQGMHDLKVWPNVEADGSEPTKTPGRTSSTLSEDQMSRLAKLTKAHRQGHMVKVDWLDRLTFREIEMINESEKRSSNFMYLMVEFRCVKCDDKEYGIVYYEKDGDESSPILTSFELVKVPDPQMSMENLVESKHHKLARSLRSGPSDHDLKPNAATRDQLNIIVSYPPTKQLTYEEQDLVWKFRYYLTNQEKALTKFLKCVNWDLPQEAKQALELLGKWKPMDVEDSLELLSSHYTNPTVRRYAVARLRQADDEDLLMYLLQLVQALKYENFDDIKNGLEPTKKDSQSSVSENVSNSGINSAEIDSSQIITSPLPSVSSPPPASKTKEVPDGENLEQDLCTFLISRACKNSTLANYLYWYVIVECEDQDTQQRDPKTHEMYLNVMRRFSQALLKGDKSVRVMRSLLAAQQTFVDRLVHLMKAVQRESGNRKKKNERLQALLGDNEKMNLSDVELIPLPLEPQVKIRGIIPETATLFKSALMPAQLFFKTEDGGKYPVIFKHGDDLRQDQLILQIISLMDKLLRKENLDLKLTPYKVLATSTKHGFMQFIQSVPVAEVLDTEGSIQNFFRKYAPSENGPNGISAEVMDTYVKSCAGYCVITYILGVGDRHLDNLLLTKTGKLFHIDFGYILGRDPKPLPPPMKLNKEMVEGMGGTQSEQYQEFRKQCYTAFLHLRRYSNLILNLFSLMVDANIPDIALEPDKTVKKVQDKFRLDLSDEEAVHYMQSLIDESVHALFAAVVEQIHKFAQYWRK

[13] = Inhibition of DMH-1 induced cardiogenesis in mouse embryonic stem cells transfected with Myh6-GFP pretreated with compound followed by DMH-1 stimulation for 24 hrs in the presence of BMP-4 with replacement of media on day 7 and 9 and measured after 11 days by DAPI-staining based assay; conditions: embryonic stem cell
[14] = target: DNA-dependent protein kinase catalytic subunit (Homo sapiens, UniProt P78527); assay: Inhibition of DNA-PK (unknown origin)
[15] = target: T1, Phosphatidylinositol 4,5-bisphosphate 3-kinase catalytic subunit gamma isoform; assay: Inhibition of PI3Kgamma (unknown origin)
Target sequence in this assay (P48736 whole entry, canonical isoform): as the sequence (P48736 whole entry, looked up, canonical isoform) above

[16] = target: T2, Phosphatidylinositol 4,5-bisphosphate 3-kinase catalytic subunit alpha isoform; assay: Inhibition of PI3Kalpha (unknown origin)
[17] = target: T5, Phosphatidylinositol 4,5-bisphosphate 3-kinase catalytic subunit delta isoform (Homo sapiens, UniProt O00329); assay: Inhibition of PI3Kdelta (unknown origin)
T5 sequence (O00329 whole entry): T3 sequence (whole entry)

[18] = target: T4, Phosphatidylinositol 4,5-bisphosphate 3-kinase catalytic subunit beta isoform; assay: Inhibition of PI3Kbeta (unknown origin)
Target sequence in this assay (P42338 whole entry, canonical isoform): as the sequence (P42338 whole entry, looked up, canonical isoform) above

| Structure (SMILES) | Activity (C2C12 [1]) | Activity (HEK293T) | IC50 [4] [nM] | IC50 [5] [nM] | IC50 [6] [nM] | Activity (C2C12 [7]) [%] | inhibition [8] [%] | inhibition [9] [%] | inhibition [10] [%] | inhibition [11] [%] | inhibition [12] [%] | further results |
| --- | --- | --- | --- | --- | --- | --- | --- | --- | --- | --- | --- | --- |
| CC(=O)/N=c1/[nH]c(C)c(-c2ccc(Cl)c(S(=O)(=O)NCCO)c2)s1 | Active |  |  |  |  |  |  |  |  |  |  |  |
| Nc1nc2ccc(F)cc2c2nc(-c3ccco3)nn12 | Active | Active |  |  |  |  |  |  |  |  |  |  |
| Cc1nc(NC(=O)N2CCC[C@H]2C(N)=O)sc1-c1ccnc(C(C)(C)C(F)(F)F)c1 | Active |  |  |  |  |  |  |  |  |  |  |  |
| Nc1nc2ccccc2c2nc(-c3ccco3)nn12 | Active | Active |  |  |  |  |  |  |  |  |  |  |
| Fc1cccc(-n2cnc3c(NCc4nc5c(F)c(F)ccc5[nH]4)nc(N4CCOCC4)nc32)c1 |  |  |  |  |  |  |  |  |  |  |  | Activity (C2C12 [2]): Dde; Activity (C2C12 [3]): Dde |
| Nc1nc2ccc(Cl)cc2c2nc(-c3ncco3)nn12 | Active | Active | 430 | 2070 | 2920 | 166 | 91 | 82 | 79 | 29 | 10 |  |
| Nc1nc2ccc(Br)cc2c2nc(-c3ccco3)nn12 | Active | Active | 120 | 380 | 220 | 554 | 93 | 80 | 75 | 27 | 6 |  |
| Nc1ccc2nc(N)n3nc(-c4ccco4)nc3c2c1 |  | Active |  |  |  |  |  |  |  |  |  |  |
| Nc1nc2ccc(Cl)cc2c2nc(-c3ccco3)nn12 [CGS-15943] | Active | Active | 240 | 490 | 820 | 290 | 96 | 86 | 34 | 39 | 5 | IC50 [13]: 500 nM; IC50 [14]: 140 nM; IC50 [15]: 110 nM; IC50 [16]: 1280 nM; IC50 [17]: 970 nM; IC50 [18]: 8480 nM |
| Nc1nc2ccc(O)cc2c2nc(-c3ccco3)nn12 |  | Active | 3640 | > 10000 | 6180 | 184 | 79 | 72 | 11 | 0 | 29 |  |
